Earlier results in patent US20060165788A1, “Lercanidipine pH dependent pulsatile release compositions” (priority 2004, published 2006).

What was measured:
Caco-2 cell = Caco-2 cell apparatus
[1] = not given; remark: listed apart in the source
[2] = for time to maximum concentration (Tmax): form (I) and form (II) compared with each other

| solubility at pH 5 | permeability, Paap (Caco-2 cell) [×10⁻⁶ cm/s] | increase of amount of lercanidipine absorbed with simultaneous intake of food ([1]; in vivo) | presystemic first pass elimination ([1]; in vivo) | peak plasma level Tmax ([1]; oral administration, immediate release form) [h] | time to maximum concentration (Tmax) [2] | bioavailability ([2]; form (II) compared to Form (I)) | plasma concentration (AUCo-t) ([2]; form (II) compared to Form (I)) | Compound |
| --- | --- | --- | --- | --- | --- | --- | --- | --- |
| less than 20 μg/ml | 0.05 | between three and four times | extensive | 1 to 3 | – | – | – | COC(=O)C1=C(C)NC(C)=C(C(=O)OC(C)(C)CN(C)CCC(c2ccccc2)c2ccccc2)C1c1cccc([N+](=O)[O-])c1.Cl (stereo not drawn) [Lercanidipine, methyl 1,1,N-trimethyl-N-(3,3-diphenylpropyl)-2-aminoethyl 1,4-dihydro-2,6-dimethyl-4-(3-nitrophenyl)pyridine-3,5-dicarboxylate] |
| – | – | – | – | – | shorter time to maximum concentration | – | – | COC(=O)C1=C(C)NC(C)=C(C(=O)OC(C)(C)CN(C)CCC(c2ccccc2)c2ccccc2)C1c1cccc([N+](=O)[O-])c1 (stereo not drawn) [form (I)] |
| – | – | – | – | – | delayed time of maximum concentration | higher bioavailability | higher plasma concentration | COC(=O)C1=C(C)NC(C)=C(C(=O)OC(C)(C)CN(C)CCC(c2ccccc2)c2ccccc2)C1c1cccc([N+](=O)[O-])c1 (stereo not drawn) [form (II)] |
